Experimental data taken from patent US6623933B1 (priority 1999, dated 2003).

Tests used:
[1] = test system: primary cultures of rat hippocampal neurons; details: Weaver et al. 1997; cited from earlier work
[2] = test system: primary cultures of rat hippocampal neurons; experiment: NMDA-induced neuronal death, trypan blue exclusion; assay type: cell-based; details: acute 30 μM NMDA; steroid 100 μM (3α5β 50 μM)
Description: (§1) Principally neuronal cultures were prepared from hippocampal tissue of fetal Sprague-Dawley rats on day 18 of embryonic development, as previously described (Brewer et al., Brain Research 494: 65-74 (1989)). Briefly, hippocampal cells were dissociated by trituration in Ca^2+/Mg^2+-free Hank's basic salt solution (Gibco) supplemented with 4.2 mM bicarbonate, 1 mM sodium pyruvate, 20 mM HEPES, 3 mg/ml bovine serum albumin (BSA). Dissociated cells were then pelleted by centrifugation (500×g, 4 min). […] Cells were then plated onto poly-L-lysine-coated 24-well culture dishes (Nunclon) at a density of 15,000 cell/cm^2 and maintained in a humidified atmosphere containing 5% CO2/95% air at 37° C. After 48 h, nonneuronal cell division was inhibited by a 48 h exposure to 1 μM cytosine arabinoside. Cultures were subsequently maintained in serum-free DMEM plus defined components and were used for experiments 16 to 24 days after plating.
Steroids were dissolved in DMSO (0.5% final concentration), and all treatment media contained 0.5% DMSO. […] Following exposure, cultures were washed 3 times with medium from sister cultures (conditioned medium). After the final wash, steroid or vehicle was reintroduced. Drugs were added to cultures in 25 μl of conditioned medium to yield a final volume of 0.25 ml per well. Except where otherwise noted, final steroid concentration was 100 μM.
The ability of neurons to exclude trypan blue was used to quantitate cell viability (Dawson et al., Proc Natl Acad Sci USA 88: 6368-6371 (1991)). […] Cultures were then fixed with 4% paraformaldehyde in PBS for 30 min, at whichtime the fixative was replaced with PBS. The number of stained and unstained neurons were counted in 4 high-power fields per culture well, using an inverted phase contrast microscope under both bright field and phase contrast settings. Experiments were performed in triplicate, and all assessments were made with the experimenter blind to the treatment of each culture well. Percent cell death is expressed as follows: (number of trypan blue stained neurons)/(total number of neurons)×100%.
(§2) All data are expressed as mean±standard error of the mean. Statistical significance was evaluated using 95% confidence limits unless otherwise noted.

[3] = target: T1, NR1100+NR2A NMDA receptor (Rattus norvegicus, UniProt P35439+Q00959); experiment: NMDA-induced current (INMDA), Xenopus oocytes, Example 2; assay type: cell-based; details: 100 μM NMDA, 100 μM steroid
T1 construct: expressed in transfected cells; host or cells: Xenopus oocytes co-injected with NR1100 and NR2A cRNA
T1 sequence (Q00959 23-1464, other chains not shown): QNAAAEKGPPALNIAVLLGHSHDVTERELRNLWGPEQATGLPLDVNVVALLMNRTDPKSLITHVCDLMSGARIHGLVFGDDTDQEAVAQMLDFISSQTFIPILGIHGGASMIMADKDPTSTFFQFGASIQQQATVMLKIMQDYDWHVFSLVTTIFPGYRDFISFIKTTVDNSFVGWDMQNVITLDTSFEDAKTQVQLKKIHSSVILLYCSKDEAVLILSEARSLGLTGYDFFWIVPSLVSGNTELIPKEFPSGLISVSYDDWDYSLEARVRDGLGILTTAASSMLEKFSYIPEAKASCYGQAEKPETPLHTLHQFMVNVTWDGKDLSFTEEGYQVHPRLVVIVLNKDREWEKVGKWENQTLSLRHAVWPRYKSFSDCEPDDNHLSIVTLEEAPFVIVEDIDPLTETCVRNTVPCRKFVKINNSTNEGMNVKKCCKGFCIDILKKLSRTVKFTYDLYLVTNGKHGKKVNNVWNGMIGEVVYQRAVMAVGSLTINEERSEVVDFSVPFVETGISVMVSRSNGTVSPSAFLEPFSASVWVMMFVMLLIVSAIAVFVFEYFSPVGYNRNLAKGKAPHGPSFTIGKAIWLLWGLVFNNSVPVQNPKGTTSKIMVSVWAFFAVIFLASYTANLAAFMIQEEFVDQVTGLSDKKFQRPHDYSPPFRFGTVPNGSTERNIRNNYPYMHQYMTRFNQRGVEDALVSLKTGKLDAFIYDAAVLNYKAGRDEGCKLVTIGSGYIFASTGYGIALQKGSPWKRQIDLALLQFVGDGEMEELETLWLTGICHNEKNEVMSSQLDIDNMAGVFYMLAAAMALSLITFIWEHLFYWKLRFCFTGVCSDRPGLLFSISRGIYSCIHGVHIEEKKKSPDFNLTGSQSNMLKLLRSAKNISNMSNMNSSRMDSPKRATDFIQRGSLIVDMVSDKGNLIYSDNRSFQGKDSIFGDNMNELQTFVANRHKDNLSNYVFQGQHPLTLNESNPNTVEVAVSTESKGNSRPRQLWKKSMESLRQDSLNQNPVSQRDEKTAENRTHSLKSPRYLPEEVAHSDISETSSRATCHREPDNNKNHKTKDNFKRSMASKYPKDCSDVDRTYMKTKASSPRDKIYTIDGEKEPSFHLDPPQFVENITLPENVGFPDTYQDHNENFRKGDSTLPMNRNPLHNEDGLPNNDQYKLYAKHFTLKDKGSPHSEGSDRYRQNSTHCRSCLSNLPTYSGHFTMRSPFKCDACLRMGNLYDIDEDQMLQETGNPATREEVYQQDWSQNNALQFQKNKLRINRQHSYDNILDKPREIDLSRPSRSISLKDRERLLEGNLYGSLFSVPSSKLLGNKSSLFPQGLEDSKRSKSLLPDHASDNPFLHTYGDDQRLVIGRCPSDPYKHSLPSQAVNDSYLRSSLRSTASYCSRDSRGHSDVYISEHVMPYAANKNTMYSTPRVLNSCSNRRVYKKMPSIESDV
Description: NR1100 (NR1G) and NR2A clones were kindly provided by Dr. R. S. Zukin (Albert Einstein College of Medicine, New York, N.Y.) and Dr. S. Nakanishi (Faculty of Medicine, Kyoto University, Kyoto, Japan), respectively. mRNA was prepared through in vitro transcription of NR1100 and NR2A cDNAs using the mMessage mMachine kit (Ambion, Tex.). On the day following isolation, batches of 20-40 selected Xenopus oocytes were injected with 50 nl of prepared RNA solution (0.5 ng NR1100 and 5 ng of NR2A mRNA/oocyte). Oocytes were maintained in glass petri dishes containing Barth's solution (84 mM NaCl, 1 mM KCl, 2.4 mM NaHCO3, 0.82 mM MgSO4, 0.41 mM CaCl2, 0.33 mM Ca(NO3)2, 2.5 mM pyruvate, 0.1 mg/ml gentamycin, 7.5 mM Tris/HCl, pH 7.4) in an incubator at 18° C. Oocytes were used for electrophysiological experiments 4-10 days after injection.
Recordings from oocytes were obtained using the two electrode voltage-clamp mode with an Axoclamp-2A amplifier (Axon Instruments). The resistance of microelectrodes, pulled from glass capillaries and filled with 3 M KCl solution, was 2.5-3.5 M. Membrane potential was clamped at −70 mV. Drugs were applied by a gravity-driven external perfusion system. Drug application and data acquisition were carried out with custom-written software implemented in the SuperScopeII programming language (GW Instruments, Somerville, Mass.).
The degree of modulation of NMDA-induced Ca^2+ influx, cell death, and currents is expressed as the percent change, defined as (I′/I−1)×100%, where I and I′ are the NMDA-induced responses in the absence and presence of modulator, respectively. All data are expressed as mean±standard error of the mean. Statistical significance was evaluated using 95% confidence limits unless otherwise noted.

[4] = test system: middle cerebral artery occlusion in rats; details: Weaver et al. 1997; cited from earlier work
[5] = test system: primary cultures of rat hippocampal neurons; experiment: NMDA-induced increase in [Ca2+]i, Fluo-3 AM; assay type: cell-based; details: 5 μM NMDA; steroid 100 μM (3α5β 50 μM)
Description: as §1
DMSO was also added to controls to maintain a constant final DMSO concentration of […].
as §2

| Compound | neuroprotection against NMDA-induced neuronal death [1] | inhibition of NMDA-induced neuronal death [2] [%] | inhibition of INMDA [3] | inhibition of neuronal death after middle cerebral artery occlusion [4] | reduction of NMDA-induced rise in [Ca2+]i [5] |
| --- | --- | --- | --- | --- | --- |
| C[C@]12CC[C@@H]3c4ccc(O)cc4CC[C@H]3[C@@H]1CC[C@@H]2O [17β-estradiol] | neuroprotective against NMDA-induced neuronal death | – | – | – | – |
| pregnanolone hemisuccinate [3α5βHS] | – | 54±3 | about equally effective in inhibiting INMDA | effective at inhibiting the neuronal death | approximately 40% |
